# US9695155B2, “Herbicidal substituted pyrimidinyloxy benzene compounds” (E. I. DU PONT DE NEMOURS AND COMPANY, priority 2013, dated 2017)
# Tests used:
# waterhemp = assay: Test C postemergence; assay type: in vivo, Amaranthus rudis; settings: Amaranthus tuberculatus, post-emergence
# In short: (§1)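 Preemergence: seeds sown in a loam soil–sand blend and sprayed with test chemical in a non-phytotoxic solvent mixture containing surfactant. Postemergence: plants at 2 to 18 cm (1- to 4-leaf stage) in peat-based medium, treated with the same formulation. Greenhouse 13 to 15 days, then visual rating 0 (no effect) to 100 (complete control).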
# corn = assay: Test A postemergence; assay type: in vivo, Zea mays; settings: Zea mays, post-emergence, 240 h
# In short: (§2)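 Compounds in non-phytotoxic solvent with surfactant applied as soil spray preemergence, or postemergence to plants 2-10 cm at one- to two-leaf stage, in loam/sand. After approximately 10 days in greenhouse, injury rated visually versus untreated controls, 0 (no effect) to 100 (complete control).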
# soybean = assay: Test C postemergence; assay type: in vivo, Glycine max; settings: Glycine max, post-emergence
# In short: as §1
# large (Lg) crabgrass [1] = assay: Test C postemergence; assay type: in vivo, Digitaria sanguinalis; settings: Digitaria sanguinalis, post-emergence
# In short: as §1
# galium = assay: Test C preemergence; assay type: in vivo, Galium aparine; settings: Galium, pre-emergence
# In short: as §1
# oilseed rape = assay: Test C postemergence; assay type: in vivo, Brassica napus; settings: Brassica napus, post-emergence
# In short: as §1
# large (Lg) crabgrass [2] = assay: Test C preemergence; assay type: in vivo, Digitaria sanguinalis; settings: Digitaria sanguinalis, pre-emergence
# In short: as §1
# johnsongrass = assay: Test C preemergence; assay type: in vivo, Sorghum halepense; settings: Sorghum halepense, pre-emergence
# In short: as §1
# sedge, umbrella = assay: Test B flooded paddy test; assay type: in vivo, Cyperus difformis; settings: Cyperus difformis, Flood, 250 g ai/ha; 0 to 100 scale where 0 is no effect and 100 is complete control; read-out: Plant response rating, Sedge, Umbrella
# In short: (§3)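 Plants were grown to the 2-leaf stage, then pots were flooded to 3 cm above the soil and compounds were applied directly into the paddy water. That depth was held throughout, and after 13 to 15 days in the greenhouse injury was rated visually against controls on a 0–100 scale (0 no effect, 100 complete control).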
# lambsquarters = assay: Test C postemergence; assay type: in vivo, Chenopodium album; settings: Chenopodium album, post-emergence
# In short: as §1
# barnyardgrass [3] = assay: Test A postemergence; assay type: in vivo, Echinochloa crus-galli; settings: Echinochloa crus-galli, post-emergence, 240 h
# In short: as §2
# velvetleaf [4] = assay: Test C preemergence; assay type: in vivo, Abutilon theophrasti; settings: Abutilon theophrasti, pre-emergence
# In short: as §1
# barnyardgrass [5] = assay: Test A preemergence; assay type: in vivo, Echinochloa crus-galli; settings: Echinochloa crus-galli, pre-emergence, 240 h
# In short: as §2
# velvetleaf [6] = assay: Test C postemergence; assay type: in vivo, Abutilon theophrasti; settings: Abutilon theophrasti, post-emergence
# In short: as §1
# rice = assay: Test B flooded paddy test; assay type: in vivo, Oryza sativa; settings: Oryza sativa; Flood, 250 g ai/ha; 0 to 100 scale where 0 is no effect and 100 is complete control; read-out: Plant response rating, Rice
# In short: as §3
# [7] = 125 g ai/ha, 0 to 100 scale where 0 is no effect and 100 is complete control, read-out: Plant response rating, Barnyardgrass
structure (smiles),measurement,setting,value
"N#Cc1cccc(Oc2ncc(Cl)cn2)c1-n1cc(C(F)(F)F)cn1 [Compound 58, 3-[(5-chloro-2-pyrimidinyl)oxy]-2-[4-(trifluoromethyl)-1H-pyrazol-1-yl]benzonitrile]",pest or weed control at 125 g/ha,"waterhemp; 125 g ai/ha, postemergence, read-out: Plant response rating (0 to 100), Waterhemp",90%
same,pest or weed control at 250 g/ha,"waterhemp; 250 g ai/ha, postemergence, read-out: Plant response rating (0 to 100), Waterhemp",100%
same,pest or weed control at 31 g/ha,"waterhemp; Postemergence, 31 g ai/ha, scale 0 to 100 (0 no effect, 100 complete control), 13 to 15 days, read-out: Plant response rating, Waterhemp",85%
same,pest or weed control at 62 g/ha,"waterhemp; Postemergence, 62 g ai/ha, scale 0 to 100 (0 no effect, 100 complete control), read-out: Plant response rating, Waterhemp",90%
same,"Corn plant response rating (crop injury, 0 = no effect, 100 = complete kill) at 125 g/ha","corn; 125 g ai/ha, 0 to 100 scale where 0 is no effect and 100 is complete control",100%
same,plant injury at 500 g/ha,"corn; 500 g ai/ha, 0 to 100 scale, 0 no effect, 100 complete control, read-out: Plant response rating Corn",100%
same,"Soybean plant response rating (crop injury, 0-100 scale) at 125 g/ha","soybean; 125 g ai/ha, postemergence, read-out: Plant response rating (0 to 100), Soybean",98%
same,"Soybean plant response rating (crop injury, 0-100 scale) at 250 g/ha","soybean; 250 g ai/ha, postemergence",98%
same,"Soybean plant response rating (crop injury, 0-100 scale) at 31 g/ha","soybean; Postemergence, 31 g ai/ha, scale 0 to 100 (0 no effect, 100 complete control), 13 to 15 days",95%
same,"Soybean plant response rating (crop injury, 0-100 scale) at 62 g/ha","soybean; Postemergence, 62 g ai/ha, scale 0 to 100 (0 no effect, 100 complete control)",95%
same,pest or weed control at 125 g/ha,"large (Lg) crabgrass [1]; 125 g ai/ha, postemergence, read-out: Plant response rating (0 to 100), Crabgrass, Large",50%
same,pest or weed control at 250 g/ha,"large (Lg) crabgrass [1]; 250 g ai/ha, postemergence, read-out: Plant response rating (0 to 100), Crabgrass, Large",85%
same,pest or weed control at 31 g/ha,"large (Lg) crabgrass [1]; Postemergence, 31 g ai/ha, scale 0 to 100 (0 no effect, 100 complete control), 13 to 15 days, read-out: Plant response rating, Crabgrass, Large",5%
same,pest or weed control at 62 g/ha,"large (Lg) crabgrass [1]; Postemergence, 62 g ai/ha, scale 0 to 100 (0 no effect, 100 complete control), read-out: Plant response rating, Crabgrass, Large",20%
same,pest or weed control at 62 g/ha,"galium; 62 g ai/ha, preemergence, scale 0 (no effect) to 100 (complete control), read-out: Galium plant response rating",100%
same,pest or weed control at 125 g/ha,"galium; 125 g ai/ha, preemergence, scale 0 (no effect) to 100 (complete control), read-out: Galium plant response rating",100%
same,pest or weed control at 250 g/ha,"galium; 250 g ai/ha, preemergence, scale 0 (no effect) to 100 (complete control), read-out: Galium plant response rating",100%
same,pest or weed control at 31 g/ha,"galium; Preemergence, 31 g ai/ha, scale 0 to 100, 0 no effect, 100 complete control, read-out: Plant response rating, Galium",100%
same,plant injury at 125 g/ha,"oilseed rape; 125 g ai/ha, postemergence, read-out: Plant response rating (0 to 100), Oilseed Rape",85%
same,plant injury at 250 g/ha,"oilseed rape; 250 g ai/ha, postemergence, read-out: Plant response rating (0 to 100), Oilseed Rape",85%
same,plant injury at 31 g/ha,"oilseed rape; Postemergence, 31 g ai/ha, scale 0 to 100 (0 no effect, 100 complete control), 13 to 15 days, read-out: Plant response rating, Oilseed Rape",60%
same,plant injury at 62 g/ha,"oilseed rape; Postemergence, 62 g ai/ha, scale 0 to 100 (0 no effect, 100 complete control), read-out: Plant response rating, Oilseed Rape",70%
same,pest or weed control at 62 g/ha,"large (Lg) crabgrass [2]; 62 g ai/ha, preemergence, scale 0 (no effect) to 100 (complete control), read-out: Crabgrass, Large plant response rating",100%
same,pest or weed control at 125 g/ha,"large (Lg) crabgrass [2]; 125 g ai/ha, preemergence, scale 0 (no effect) to 100 (complete control), read-out: Crabgrass, Large plant response rating",100%
same,pest or weed control at 250 g/ha,"large (Lg) crabgrass [2]; 250 g ai/ha, preemergence, scale 0 (no effect) to 100 (complete control), read-out: Crabgrass, Large plant response rating",100%
same,pest or weed control at 31 g/ha,"large (Lg) crabgrass [2]; Preemergence, 31 g ai/ha, scale 0 to 100, 0 no effect, 100 complete control, read-out: Plant response rating, Crabgrass, Large",100%
same,pest or weed control at 62 g/ha,"johnsongrass; 62 g ai/ha, preemergence, scale 0 (no effect) to 100 (complete control), read-out: Johnsongrass plant response rating",100%
same,pest or weed control at 125 g/ha,"johnsongrass; 125 g ai/ha, preemergence, scale 0 (no effect) to 100 (complete control), read-out: Johnsongrass plant response rating",100%
same,pest or weed control at 250 g/ha,"johnsongrass; 250 g ai/ha, preemergence, scale 0 (no effect) to 100 (complete control), read-out: Johnsongrass plant response rating",100%
same,pest or weed control at 31 g/ha,"johnsongrass; Preemergence, 31 g ai/ha, scale 0 to 100, 0 no effect, 100 complete control, read-out: Plant response rating, Johnsongrass",85%
same,pest or weed control at 250 g/ha,"sedge, umbrella",90%
same,pest or weed control at 125 g/ha,"lambsquarters; 125 g ai/ha, postemergence, read-out: Plant response rating (0 to 100), Lambsquarters",98%
same,pest or weed control at 250 g/ha,"lambsquarters; 250 g ai/ha, postemergence, read-out: Plant response rating (0 to 100), Lambsquarters",98%
same,pest or weed control at 31 g/ha,"lambsquarters; Postemergence, 31 g ai/ha, scale 0 to 100 (0 no effect, 100 complete control), 13 to 15 days, read-out: Plant response rating, Lambsquarters",75%
same,pest or weed control at 62 g/ha,"lambsquarters; Postemergence, 62 g ai/ha, scale 0 to 100 (0 no effect, 100 complete control), read-out: Plant response rating, Lambsquarters",90%
same,pest or weed control at 125 g/ha,barnyardgrass [3]; [7],100%
same,pest or weed control at 500 g/ha,"barnyardgrass [3]; 500 g ai/ha, 0 to 100 scale, 0 no effect, 100 complete control, read-out: Plant response rating Barnyardgrass",100%
same,pest or weed control at 62 g/ha,"velvetleaf [4]; 62 g ai/ha, preemergence, scale 0 (no effect) to 100 (complete control), read-out: Velvetleaf plant response rating",100%
same,pest or weed control at 125 g/ha,"velvetleaf [4]; 125 g ai/ha, preemergence, scale 0 (no effect) to 100 (complete control), read-out: Velvetleaf plant response rating",100%
same,pest or weed control at 250 g/ha,"velvetleaf [4]; 250 g ai/ha, preemergence, scale 0 (no effect) to 100 (complete control), read-out: Velvetleaf plant response rating",100%
same,pest or weed control at 31 g/ha,"velvetleaf [4]; Preemergence, 31 g ai/ha, scale 0 to 100, 0 no effect, 100 complete control, read-out: Plant response rating, Velvetleaf",100%
same,pest or weed control at 125 g/ha,barnyardgrass [5]; [7],100%
same,pest or weed control at 500 g/ha,"barnyardgrass [5]; 500 g ai/ha, 0 to 100 scale, 0 no effect, 100 complete control, approx. 10 days, read-out: Barnyardgrass plant response rating",100%
same,pest or weed control at 125 g/ha,"velvetleaf [6]; 125 g ai/ha, postemergence, read-out: Plant response rating (0 to 100), Velvetleaf",60%
same,pest or weed control at 250 g/ha,"velvetleaf [6]; 250 g ai/ha, postemergence, read-out: Plant response rating (0 to 100), Velvetleaf",85%
same,pest or weed control at 31 g/ha,"velvetleaf [6]; Postemergence, 31 g ai/ha, scale 0 to 100 (0 no effect, 100 complete control), 13 to 15 days, read-out: Plant response rating, Velvetleaf",45%
same,pest or weed control at 62 g/ha,"velvetleaf [6]; Postemergence, 62 g ai/ha, scale 0 to 100 (0 no effect, 100 complete control), read-out: Plant response rating, Velvetleaf",50%
same,plant injury at 250 g/ha,rice,50%
